The record followed here is patent publication US8691990B2, “6-heterocyclic imidazo[1,2-α]pyridine-2-carboxamide derivatives, preparation and therapeutic use thereof” (Sanofi, priority 2008, dated 2014).

pEC50: −log10 of the molar value. Structures can show the parent of a compound that is named as a salt.

This assay has as its target T1, murine Nurr 1 receptor (Mus musculus, UniProt Q06219).
T1 construct: a cell line (N2A) endogenously expressing the murine Nurr 1 receptor; host or cells: Neuro-2A (N2A) mouse neuroblastoma cells stably transfected with 8NBRE-luciferase
The assay is described as follows: In vitro activity on N2A cells (NBRE-luciferase reporter gene). The format is cell-based. The settings on record: N2A cell line endogenously expressing Nurr 1, stably transfected with 8NBRE-luciferase; products incubated 24 hours. The protocol: Evaluation of the In Vitro Activity on N2A Cells
The activity of the compounds according to the invention was evaluated on a cell line (N2A) endogenously expressing the murine Nurr 1 receptor and stably transfected with the NOT binding response element (NBRE) coupled to the luciferase reporter gene. The EC50 values are between 0.01 and 1000 nM. The tests were performed according to the procedure described hereinbelow.
The cell line Neuro-2A is obtained from a standard commercial source (ATCC). The clone Neuro-2A was obtained from a spontaneous tumour originating from a strain of albino mice A by R. J Klebe et al. This line Neuro-2A is then stably transfected with 8NBRE-luciferase. The N2A-8NBRE cells are cultured to the point of confluence in 75 cm^2 culture flasks containing DMEM supplemented with 10% foetal calf serum, 4.5 g/L of glucose and 0.4 mg/ml of geneticin. After culturing for one week, the cells are recovered with 0.25% trypsin for 30 seconds and then resuspended in DMEM without phenol red, containing 4.5 g/L of glucose and 10% Hyclone defatted serum, and placed in white, transparent-based 96-well plates. The cells are deposited at a rate of 60 000 per well in 75 μL for 24 hours before adding the products. The products are applied in 25 μL and incubated for a further 24 hours. On the day of measurement, an equivalent volume (100 μL) of Steadylite is added to each well, and the wells are then left for 30 minutes to obtain complete lysis of the cells and maximum production of the signal. The plates are then measured in a microplate luminescence counter, after having been sealed with an adhesive film. The products are prepared in the form of a 10^−2 M stock solution, and then diluted in 100% of DMSO. Each concentration of product is prediluted in culture medium before incubation with the cells thus containing 0.625% final of DMSO.

T1 sequence (Q06219 whole entry): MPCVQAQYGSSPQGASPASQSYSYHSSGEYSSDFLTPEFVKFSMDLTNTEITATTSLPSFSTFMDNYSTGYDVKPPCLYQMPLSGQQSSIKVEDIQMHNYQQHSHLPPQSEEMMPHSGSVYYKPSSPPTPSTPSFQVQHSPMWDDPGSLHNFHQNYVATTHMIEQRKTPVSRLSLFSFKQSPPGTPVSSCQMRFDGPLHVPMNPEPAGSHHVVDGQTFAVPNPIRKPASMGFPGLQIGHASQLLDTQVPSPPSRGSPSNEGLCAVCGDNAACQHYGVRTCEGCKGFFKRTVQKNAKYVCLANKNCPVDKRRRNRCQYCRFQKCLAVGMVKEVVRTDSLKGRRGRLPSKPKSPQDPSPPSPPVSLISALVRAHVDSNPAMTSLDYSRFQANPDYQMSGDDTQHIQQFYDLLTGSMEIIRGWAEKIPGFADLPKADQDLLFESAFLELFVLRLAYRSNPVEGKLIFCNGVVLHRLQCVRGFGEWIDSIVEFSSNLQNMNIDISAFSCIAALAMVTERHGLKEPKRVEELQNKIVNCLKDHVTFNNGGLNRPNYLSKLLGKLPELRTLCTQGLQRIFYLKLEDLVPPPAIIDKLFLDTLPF

Take `O=C(Nc1ccccc1)c1cn2cc(-c3ccccn3)ccc2n1` [Compound 3, N-Phenyl-6-(pyrid-2-yl)imidazo[1,2-a]pyridine-2-carboxamide]: the pEC50 was 9.05. Compound `O=C(Nc1cc(F)cc(F)c1)c1cn2cc(-c3ccoc3)ccc2n1` [Compound 24, N-(3,5-Difluorophenyl)-6-(furan-3-yl)imidazo[1,2-a]pyridine-2-carboxamide] had a pEC50 of 9.05. The figure for `O=C(Nc1cccc(F)c1)c1cn2cc(-c3nc[nH]n3)ccc2n1` [Compound 53, N-(3-Fluorophenyl)-6-(1H-1,2,4-triazol-3-yl)imidazo[1,2-a]pyridine-2-carboxamide] is 9.40. To `O=C(Nc1ccccc1)c1cn2cc(C3=NCCN3)ccc2n1` [Compound 17, 6-(4,5-Dihydro-1H-imidazol-2-yl)-N-phenylimidazo[1,2-a]pyridine-2-carboxamide hydrochlorides (1:1) and (1:2)] belongs 7.57; to `O=C(Nc1cccc(F)c1F)c1cn2cc(-c3ccccn3)ccc2n1` [Compound 45, N-(2,3-Difluorophenyl)-6-(pyrid-2-yl)imidazo[1,2-a]pyridine-2-carboxamide], 8.92; to `O=C(Nc1ccccc1)c1cn2cc(-c3cn[nH]c3)ccc2n1` [Compound 29, N-Phenyl-6-(1H-pyrazol-4-yl)imidazo[1,2-a]pyridine-2-carboxamide], 8.96.
